# Measured values taken from patent US20240389528A1, “PERFORMANCE GAIN IN ALS INHIBITOR HERBICIDE TOLERANT BETA VULGARIS PLANTS BY COMBINATION OF BEST FITTING ALS LARGE AND SMALL SUBUNITS” (BAYER AKTIENGESELLSCHAFT, priority 2021, published 2024).
# System: B. vulgaris plants comprising the BvALS_W569L allele
# Experiment: Sensitivity of Beta vulgaris plants to ALS inhibitor herbicide (BvALS_W569L allele vs wild type allele)
# Type: in vivo
structure (smiles),measurement,value
COc1cc(OC)nc(NC(=O)NS(=O)(=O)c2cc(NC=O)ccc2C(=O)N(C)C)n1 [foramsulfuron],times less sensitive to the ALS inhibitor herbicide compared to B. vulgaris plants comprising a BvALS wild type allele,at least 2000 times
